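Results reflect a 48-hour exposure of cells in 96-well plates to compound at five concentrations. Definition used: TGI = concentration required for complete inhibition of growth.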
Tests used:
Experiment in all cases: NCI tumour cell line growth inhibition, 48 h
786-0 renal = test system: 786-0 renal
A549 NSCLC = test system: A549 NSCLC
ACHN renal = test system: ACHN renal
BT-549 breast = test system: BT-549 breast
CAKI-1 renal = test system: CAKI-1 renal
CCRF-CEM leukemia = test system: CCRF-CEM leukemia
COLO 205 colon = test system: COLO 205 colon
DU-145 prostate = test system: DU-145 prostate
EKVX NSCLC = test system: EKVX NSCLC
HCC-2998 colon = test system: HCC-2998 colon
HCT-116 colon = test system: HCT-116 colon
HCT-15 colon = test system: HCT-15 colon
HL-60(TB) leukemia = test system: HL-60(TB) leukemia
HOP-62 NSCLC = test system: HOP-62 NSCLC
HS 578T breast = test system: HS 578T breast
HT29 colon = test system: HT29 colon
IGROV1 ovarian = test system: IGROV1 ovarian
K-562 leukemia = test system: K-562 leukemia
KM12 colon = test system: KM12 colon
M14 melanoma = test system: M14 melanoma
MALME-3M melanoma = test system: MALME-3M melanoma
MCF7 breast = test system: MCF7 breast
MDA-MB-231 breast = test system: MDA-MB-231 breast
MDA-MB-435 = test system: MDA-MB-435
MDA-N = test system: MDA-N
MOLT-4 leukemia = test system: MOLT-4 leukemia
NCI-H226 lung = test system: NCI-H226 lung
NCI-H23 lung = test system: NCI-H23 lung
NCI-H460 lung = test system: NCI-H460 lung
NCI/ADR-RES ovarian = test system: NCI/ADR-RES ovarian
OVCAR-3 ovarian = test system: OVCAR-3 ovarian
OVCAR-4 ovarian = test system: OVCAR-4 ovarian
OVCAR-5 ovarian = test system: OVCAR-5 ovarian
OVCAR-8 ovarian = test system: OVCAR-8 ovarian
PC-3 prostate = test system: PC-3 prostate
RPMI-8226 leukemia = test system: RPMI-8226 leukemia
RXF 393 renal = test system: RXF 393 renal
SF-268 CNS = test system: SF-268 CNS
SF-295 CNS = test system: SF-295 CNS
SK-MEL-2 melanoma = test system: SK-MEL-2 melanoma
SK-MEL-28 melanoma = test system: SK-MEL-28 melanoma
SK-MEL-5 melanoma = test system: SK-MEL-5 melanoma
SK-OV-3 ovarian = test system: SK-OV-3 ovarian
SN12C renal = test system: SN12C renal
SNB-19 CNS = test system: SNB-19 CNS
SNB-75 CNS = test system: SNB-75 CNS
SW-620 colon = test system: SW-620 colon
T-47D breast = test system: T-47D breast
TK-10 renal = test system: TK-10 renal
U251 CNS = test system: U251 CNS
UACC-257 melanoma = test system: UACC-257 melanoma
UACC-62 melanoma = test system: UACC-62 melanoma
UO-31 renal = test system: UO-31 renal
A498 renal = test system: A498 renal
LOX IMVI melanoma = test system: LOX IMVI melanoma
NCI-H522 lung = test system: NCI-H522 lung

Measured: TGI

O=S(=O)(c1ccc(Cl)cc1)c1ccccc1C1=NCCN1
not listed: A498 renal | LOX IMVI melanoma | NCI-H522 lung
> 100 µM: all other assays above

CCc1n[nH]c(=O)n1/N=C/c1ccc(/C=N/n2c(CC)n[nH]c2=O)cc1
not listed: HCC-2998 colon | SK-OV-3 ovarian | SNB-75 CNS
> 100 µM: all other assays above

Reference: PubChem BioAssay (NCI)
